Laboratory results taken from article PMC5064235, “Structure-Based Design of Novel Tetrahydro-Beta-Carboline Derivatives with a Hydrophilic Side Chain as Potential Phosphodiesterase Inhibitors” (Scientia Pharmaceutica, 2015).
pIC50: −log10 of the molar value.

Columns and labels:
[1] = molecular target: phosphodiesterase-5 (PDE5); conditions: previously reported tadalafil analogues, introduction; cited from earlier work
recombinant human PDE5 = molecular target: T1, recombinant human PDE5 (Homo sapiens, UniProt O76074); test: In vitro PDE5 inhibitory activity (IMAP FP phosphodiesterase assay); format: biochemical; conditions: purified PDE5, 50 nM TAMRA-cGMP, 1.5 h at 30 °C; 10 concentrations, at least two replicates; read-out: PDE5 Inhibition IC50
T1 construct: purchased BPS Biosciences, San Diego, CA, USA
Procedure: Phosphodiesterase Assay: 5 U/mL of purified PDE5 (BPS Biosciences, San Diego, CA, USA) was added to the wells of black 96-well non-binding plates. Immediately, the protein was treated with the compound or vehicle control and 50 nM TAMRA-cGMP and 50 nM Fluourescein-cAMP (Molecular Devices, Sunnyvale, CA, USA) were added to each assay well. The plates were incubated for 1.5 h at 30 °C. After incubation, the IMAP FP Phosphodiesterase Evaluation Assay (Molecular Devices, Sunnyvale, CA, USA) binding reagent was added to each well and the plates were incubated for an additional 30 min at 30 °C. FP was measured according to manufacturer’s specifications using a Biotech Synergy 4 plate reader. PDE activity was expressed by an IC50 value (50% inhibitory concentration). Data analysis was done through dose-response analysis, which was repeated at least twice to confirm the reproducibility of the IC50 values.
All the synthesized final THβC compounds were tested for their ability to inhibit recombinant human PDE5. Most of the compounds were evaluated in two steps. The first step was the determination of the percentage inhibition at a screening dose of 10 μM performed in triplicate. For compounds displaying a percentage of inhibition >50%, the IC50 was then determined by testing a range of 10 concentrations with at least two replicates per concentration (Table 2).

Structure (SMILES)	pIC50 (recombinant human PDE5)	melting point [°C]	pIC50 [1]
CCN1CC(=O)N2[C@H](c3ccc(Cl)cc3)c3[nH]c4ccccc4c3C[C@@H]2C1=O [Compound 2]	–	–	8.52
CCN1CC(=O)N2[C@H](c3ccc(Br)cc3)c3[nH]c4ccccc4c3C[C@@H]2C1=O [Compound 3]	–	–	8.52
O=C1[C@@H]2Cc3c([nH]c4ccccc34)[C@H](c3ccc(Cl)cc3)N2C(=O)CN1CCCCO [Compound 6k, (6S,12aS)-6-(4-Chloro-phenyl)-2-(4-hydroxy-butyl)-2,3,6,7,12,12a-hexahydropyrazino[1’,2’:1,6]pyrido[3,4-b]indole-1,4-dione]	5.64	227 to 229	–
O=C1[C@@H]2Cc3c([nH]c4ccccc34)[C@@H](c3ccc(Cl)cc3)N2C(=O)CN1CCO [Compound 6m, (6R,12aS)-6-(4-Chloro-phenyl)-2-(2-hydroxy-ethyl)-2,3,6,7,12,12a-hexahydro-pyrazino[1’,2’:1,6]pyrido[3,4-b]indole-1,4-dione]	< 5.00	202 to 206	–
NCCN1CC(=O)N2[C@H](c3ccc(Cl)cc3)c3[nH]c4ccccc4c3C[C@H]2C1=O [Compound 6n, (6R,12aS)-2-(2-Amino-ethyl)-6-(4-chloro-phenyl)-2,3,6,7,12,12a-hexahydro-pyrazino[1’,2’:1,6]pyrido[3,4-b]indole-1,4-dione]	< 5.00	200 to 204	–

Now from value to compound, other results behind:

pIC50 (recombinant human PDE5)	melting point [°C]	Structure (SMILES)	pIC50 [1]
< 5.00	231 to 233	NCCN1CC(=O)N2[C@@H](c3ccc(Cl)cc3)c3[nH]c4ccccc4c3C[C@H]2C1=O [Compound 6j, (6S,12aS)-2-(2-Amino-ethyl)-6-(4-chloro-phenyl)-2,3,6,7,12,12a-hexahydro-pyrazino[1’,2’:1,6]pyrido[3,4-b]indole-1,4-dione]	–
5.64	199 to 203	O=C1[C@@H]2Cc3c([nH]c4ccccc34)[C@@H](c3ccc(Cl)cc3)N2C(=O)CN1CCCCO [Compound 6o, (6R,12aS)-6-(4-Chloro-phenyl)-2-(4-hydroxy-butyl)-2,3,6,7,12,12a-hexahydropyrazino[1’,2’:1,6]pyrido[3,4-b]indole-1,4-dione]	–
